Values belong to the substance of their own block, whether it stands above or below them.
How the values were obtained:
[1] = system: people with type 2 diabetes or overweight/obesity; settings: AWARD-5, 52 weeks; cited from earlier work
Source text: Glucagon-like peptide-1 receptor (GLP-1R) agonists, such as liraglutide and semaglutide, have been developed for the treatment of both type 2 diabetes and obesity. […] Apart from the well-characterised gastrointestinal (GI) adverse events (AEs), GLP-1R agonists are generally well tolerated. ... || Survodutide (BI 456906) is a novel subcutaneous GCGR/GLP-1R dual agonist in development for the treatment of people with type 2 diabetes, obesity and non-alcoholic steatohepatitis (NASH). Addition of a C18 fatty acid into the acylated peptide, as a half-life-extending principle, allows for weekly administration of survodutide. […] In ... || In addition to semaglutide, other GLP-1R agonists now approved for the treatment of type 2 diabetes have been investigated in combination with background metformin therapy. […] The maximum reduct ... || (+ 2 further places)

[2] = system: participants with type 2 diabetes; test: Phase II trial: exploratory biomarkers and NASH-related scores, change from baseline at EoT; assay type: in vivo, human; settings: up to 1.0 mg qw open-label, after 16 weeks
Source text: Pharmacodynamic endpoints were the changes from baseline in exploratory biomarkers related to liver function and fatty liver disease (plasma levels of cytokeratin 18 and Pro-C3 and enhanced liver fibrosis [ELF] score), glucose metabolism (adiponectin and fasting insulin and C-peptide levels) and target receptor engagement (amino acid and glucagon levels). Exploratory NASH-related scores (Fibrosis-4 [Fib-4] score, aspartate aminotransferase/platelet ratio [APRI] and non-alcoholic fatty liver disease [NAFLD] fibrosis score) were assessed as safety-related endpoints.
HbA1c was assessed at screening, weeks 1, 5, 8, 12 and 16, EoT and follow-up and analysed centrally. Bodyweight was measured at every visit (screening, weeks 1–8, 12 and 16, EoT and follow-up). Waist circumference was measured at screening, weeks 1 and 6 and EoT. Waist circumference was measured at the midpoint between the lowest rib and the iliac crest. Participants were provided with a glucose monitoring device for weekly use at home during the study. Participant-reported outcomes (Three-Factor Eating Questionnaire [TFEQ-R18 V2], Patient Global Impression of Severity [PGI-S] and a hunger visual analogue scale [VAS]) were assessed at weeks 1, 5 and 8 and EoT in a fasted state. […]
(§1) MMRM, as for the primary endpoint, and descriptive statistics. All safety endpoints, NASH-related scores and SMBG were analysed descriptively. […]

[3] = system: participants with type 2 diabetes; test: Phase II trial: adverse events (safety and tolerability); assay type: in vivo, human; settings: up to 1.0 mg qw open-label
Procedure: (VAS), the Patient’s Global Impression of Severity (PGI-S) for difficulty to control eating behaviours and the 7-point profile of self-monitoring of blood glucose (SMBG).
At each study visit, participants were advised to adhere to the specific recommended diet and exercise plan provided to them during diet and exercise counselling throughout the study.
Survodutide was made available in vials (2 mg/ml, 1 ml fill volume per vial) for dose escalation in Weeks 1–6 and in pre-filled syringes (various concentrations, 0.5 ml fill volume) for maintenance dose in Weeks 7–16. The placebo solution (isotonic sodium chloride) was filled into identical vials or pre-filled syringes. […]
Safety and tolerability were assessed based on the general occurrence of treatment -emergent adverse even ts, safety laboratory parameters, physical examination, vital sign measurements and 12 -lead ECG . ECG services were externally provided and recordings were evaluated centrally.
as §1

[4] = Phase II trial: pharmacokinetics (steady state, dose proportionality of trough concentrations); assay type: in vivo, human
Procedure: The attainment of steady state and dose proportionality of survodutide were assessed as pharmacokinetic endpoints.
HbA1c was assessed at screening, weeks 1, 5, 8, 12 and 16, EoT and follow-up and analysed centrally. Bodyweight was measured at every visit (screening, weeks 1–8, 12 and 16, EoT and follow-up). Waist circumference was measured at screening, weeks 1 and 6 and EoT. Waist circumference was measured at the midpoint between the lowest rib and the iliac crest. Participants were provided with a glucose monitoring device for weekly use at home during the study. Participant-reported outcomes (Three-Factor Eating Questionnaire [TFEQ-R18 V2], Patient Global Impression of Severity [PGI-S] and a hunger visual analogue scale [VAS]) were assessed at weeks 1, 5 and 8 and EoT in a fasted state. Blood sampling for pharmacokinetics was carried out at every visit (weeks 1–8, 12 and 16, EoT and follow-up) and blood sampling for exploratory biomarkers was carried out at weeks 1, 5, 8 and 12, EoT and follow-up. Safety assessments are described in the ESM Methods.

[5] = in vivo; cited from earlier work

Substance: dulaglutide: GLP-1R agonist approved for the treatment of type 2 diabetes
Bodyweight reduction [1]: –3.1 kg

Substance: Semaglutide: GLP-1R agonist; open-label reference control, up to 1.0 mg qw
Change from baseline in glucagon [2]: no relevant changes | Participants reporting severe AEs [3]: none

Time at which steady state appeared to be achieved (visually) ([4]; DG1–5, plasma trough concentrations): 8 week | Time at which steady state appeared to be achieved (visually) ([4]; DG6, plasma trough concentrations): 12 week | Dose proportionality of plasma trough concentrations ([4]; escalating weekly or biweekly sc doses): approximately dose-proportional
Substance: Survodutide

Substance: oxyntomodulin: endogenous proglucagon derivative, GCGR/GLP-1R dual agonist
Half-life [5]: very short

Reference: publication PMC10844353, “Dose–response effects on HbA1c and bodyweight reduction of survodutide, a dual glucagon/GLP-1 receptor agonist, compared with placebo and open-label semaglutide in people with type 2 diabetes: a randomised clinical trial” (Diabetologia, 2023)
